Laboratory results: patent publication US9512168B2, “Compound, composition and method for treating and/or ameoliorating kidney disease” (Trineo Biotechnology Co. LTD., priority 2014, dated 2016)

Key:
[1] = test system: Blb/c mice; test: Lipopolysaccharide (LPS) induced in vivo kidney inflammation, urine protein; conditions: oral 100 mg/Kg; LPS 2.5 mg/Kg/day i.p. for 5 days; urine on day 5 and day 10; FIG. 3
Method: Blb/c mice were kept in pathogen-free environment under 12:12 light-dark cycle with food (laboratory rodent diet 5001 purchased from PMI Nutrition International Inc. MO, USA) and water (i.e., distilled water) provided ad libitum, ambient temperature and relative humidity were respectively set at 22±3° C. and 50±20%. All procedures involving animal studies of the present disclose e comply with the “Guideline for the Care and Use of Laboratory Animals” issued by The Chinese-Taipei Society of Laboratory Animal Sciences.
In this example, to evaluate the therapeutic or prophylactic function of the composition of example 1.2, animals were first injected intraperitoneally with lipopolysaccharide (LPS) to induce in vivo kidney inflammation before being subject to the treatment of the composition of example 1.2.
Blb/c mice (6 weeks old) were randomly assigned to two groups, and injected intraperitoneally with lipopolysaccharide (LPS, 2.5 mg/Kg/day) for 5 consecutive days so as to induce kidney inflammation. […] Urine samples were respectively collected on the fifth and the tenth day after the experiment started, and analyzed for the level of urine protein therein. […]

[2] = test system: MDCK cells; test: Cisplatin induced in vitro kidney cell apoptosis (mitochondria membrane potential, DiOC6 staining); type: cell-based, canine; conditions: FIG. 1A
Method: Madin-Darby canine kidney (MDCK) cells (1.5×10^5 cells/mL) were cultured and maintained in Dulbecco's modified Eagle medium (DMEM) supplemented with 10% fetal bovine serum (FBS), 100 units/mL penicillin, […] streptomycin, 2 mM L-glutamine, non-essential amino acids and sodium pyruvate, and maintained in 5% CO2 at 37° C. until reached 80% confluence, then were subject to cell passages.
MDCK cells were cultured in according to procedures described in the “Materials and Methods” section. To start the experiment, MDCK cells were first incubated with 50 μM cisplatin for 4 hrs, then various concentrations of the compound of formula (I) ([…] or 100 μg/mL) or the YKII-10 composition of example 1.2 (25 to 100 μg/mL) were given to cisplatin-treated cells and further incubated for another 24 hrs. Mitochondria membrane potentials were then measured by staining the live cells with fluorescent dyes (e.g., 50 nM DiOC6), in which 50 nM DiOC6 were added to cells and incubated at 37° C. for 30 min. The cells were then washed twice with phosphate buffer solution before subjecting to microscopy analysis using the inverted fluorescent microscope. […] Results are illustrated in FIGS. 1A and 1B.

For C[C@H](CCC(=O)O)[C@H]1C[C@H](O)[C@@]2(C)C3=C(C(=O)C[C@]12C)[C@@]1(C)CCC(=O)C(C)(C)[C@@H]1C[C@@H]3O [compound of formula (I)], the urine protein level [1] was “effective in reducing”, the “reversal of cisplatin-induced apoptosis of MDCK cell” value ([2]; 50 μg/mL or 100 μg/mL for 24 hrs after 50 μM cisplatin for 4 hrs) was “capable of reversing” and the “recovery on the membrane potential” value ([2]; 100 μg/mL for 24 hrs after 50 μM cisplatin for 4 hrs, MDCK cells) was “about 80%”.
